Measured values published in US9802897B2, “Amidopyridinol derivative or pharmaceutically acceptable salt thereof and pharmaceutical composition comprising same as active component” (Research Cooperation Foundation of Yeungnam University, priority 2013, dated 2017).
Marks after values point to notes of the source that are not given here. Non-standard residues stand in square brackets, D forms with d. Residues, ends and D or L forms follow the SMILES beside them. *: point of attachment. Sta = CC(C)C[C@H](N)[C@@H](O)CC(=O)O; Isovaleryl = CC(C)CC(=O)*; Cbz = O=C(OCc1ccccc1)*; CH2F = FC*

Columns and labels:
MDA-MB-231 cells = experiment: Transwell invasion assay of MDA-MB-231 breast cancer cells; type: cell-based; details: for invasion of MDA-MB-231 cells (in words): cathepsin inhibitors vs cells not treated with inhibitors
Procedure: The invasion assay was performed by using the transwell insert (BD FALCON, Bedford, USA) equipped with a 8 μm pore-sized filter. An upper part of the transwell insert filter was coated with 20 μl of matrigel (1 mg/ml) while a bottom part of the same was coated with 30 μl of type I collagen (0.5 mg/ml). The MDA-MB-231 cells (5×10^5 cells/100 μl) were added to the insert chamber, and then, each inhibitor was also added thereto. To induce invasion of the cells, a medium supplemented with 5% FBS was added to each well of the bottom chamber to allow a reaction at a temperature of 37° C. in a cell incubator. 18 hours later, the cells remained after removing the solution in the insert chamber were removed by using a cotton swab, whereas cells at the bottom of the membrane were fixed with methanol and stained with hematoxylin and eosin. The cells present at the membrane were observed through a microscope, and the number of the cells was counted in the selected 5 fields at the resolution of 200×.
According to the same manner as in Experimental Example 7, inhibitory effects of the amidopyridinol derivatives synthesized in Examples above on invasion of breast cancer cells, e.g., MDA-MB-231, were reviewed. Here, to compare with, inhibitory effects of aminopyridinol derivatives, e.g., 6-amino-2,4,5-trimethylpyridine-3-ol (BJ-1101) and 6-diphenylamino-2,4,5-trimethylpyridine-3-ol (BJ-1201), on invasion of breast cancer cells, e.g., MDA-MB-231, were reviewed.

HT-29 cells / U937 cells = experiment: TNF-α-induced adhesion of HT-29 intestinal epithelial cells and U937 mononuclear cells; type: cell-based, human; details: 1 μM, pre-treated 1 hour, TNF-α 10 ng/ml; for inhibition at 1 µM: Homo sapiens, read-out: Inhibitory rates (%)
Procedure: HT-29 cells were cultured in a 24-well plate at a concentration of […] cells/cm^2, and meanwhile, amidopyridinol compounds 8a to 8z were pre-treated for 1 hour at each concentration in a serum-free medium supplemented only with 1% PS. Next, 10 ng/ml of TNF-α was treated therewith to allow a reaction at a temperature of 37° C. for 3 hours. After the completion of the reaction, the medium of the HT-29 cells was removed, and then, the HT-29 cells were washed with PBS once. Afterwards, U937 cells, which were treated and reacted with 10 μg/mL of BCECF-AM at a temperature of 37° C. for 30 minutes, were allowed to react with the HT-29 cells at temperature of 37° C. for 1 hour. Then, to remove U937 cells that were not adhered to the HT-29 cells, the reacted cells were washed with PBS twice. In terms of cell dissolution, 0.1% Triton X-100 in 0.1M Tris was allowed to react with the cells for 30 minutes at room temperature, and then, the cells were subjected to quantify by measuring fluorescence thereof using the Fluostar optima microplate reader (BMG Labtechnologies, Germany).

[1] = tested on: VEGF-induced angiogenesis in chicken chorioallantoic membrane (CAM); experiment: CAM analysis of VEGF-induced angiogenesis; type: in vivo; details: VEGF (20 ng/CAM) + Compound (0.01 nmol/CAM), number of blood vessels after 3 days; for inhibition in vivo at 0.01 nmol/CAM: Gallus gallus, 72 h, read-out: Inhibitory rates (%)
Procedure: To confirm inhibitory effects on angiogenesis through in vivo experiments, the chorioallantoic membrane (CAM) analysis was carried out (refer to Nguyen M et al., Microvascular Res., 47, pp 31-40, 1994). A fertilized egg of a chicken was cultured in conditions maintaining a temperature of 37° C. and relative humidity of 55%. On the 10th day of the culturing, a first small hole was made on an air sac part using a hypodermic needle (Green Cross Medical Corp., Korea), and then, a second hole was made on a flat part of the fertilized egg to make a window thereon. Air was removed through the first hole, i.e., the air sac part, and accordingly, the CAM was separated from the shell of the fertilized egg. Then, a grinding wheel (Multipro 395JA, Dremel, Mexico) was used to cut the air sac part, thereby making a window thereon. Next, the whatman filter disk #1 (Whatman Company, USA) was treated with 3 mg/mL of cortisone acetate, dried, and then, wet by VEGF at a concentration of 20 ng/CAM. The filter disk was placed on blood vessels through the window, and then, compounds prepared according to Examples above were each dissolved in DMSO, diluted with PBS, and then, treated for each concentration. After 3 days of treating the compounds, the CAM part on which the filter disk was placed was isolated, and then, washed with PBS. The Stemi SV6 stereomicroscope (Carl Zeiss, Germany) and the Image-Pro Plus software (Media Cybernetics; Silver Spring, Md., USA) were used to capture images of the CAM part, so as to measure the number of the blood vessels and to analyze data obtained therefrom.

A549 lung cancer cells = experiment: CAM inoculated with A549 lung cancer cells: angiogenesis and tumor growth; type: in vivo, chicken; details: A549 on CAM, 5 days
Procedure: To confirm inhibitory effects on angiogenesis through in vivo experiments, the CAM analysis was carried out (refer to Nguyen M et al., Microvascular Res., 47, pp 31-40, 1994). A fertilized egg of a chicken was cultured in conditions maintaining a temperature of 37° C. and relative humidity of 55%. On the 9th day of the culturing, a first small hole was made on an air sac part using a hypodermic needle (Green Cross Medical Corp., Korea), and then, a second hole was made on a flat part of the fertilized egg to make a window thereon. Air was removed through the first hole, i.e., the air sac part, and accordingly, the CAM was separated from the shell of the fertilized egg. Then, a grinding wheel (Multipro 395JA, Dremel, Mexico) was used to cut the air sac part, thereby making a window thereon. Meanwhile, A549 lung cancer cells were mixed with matrigel at a ratio of 1:1, and then, the mixture was treated with Compounds 8a, 8b, and 8g, respectively, followed by being inoculated at a density of 1.5×10^6 cells/CAM.
After 5 days of the inoculation, the CAM part on which tumors were formed was isolated, and then, washed with PBS. The Stemi SV6 stereomicroscope (Carl Zeiss, Germany) and the Image-Pro Plus software (Media Cybernetics; Silver Spring, Md., USA) were used to capture images of the CAM part, so as to measure the number of the blood vessels and to analyze data obtained therefrom.

[2] = 1 μM, MDA-MB-231 invasion, 5% FBS, 18 hours

## CCCNC(=O)[C@H]1O[C@@H]1C(=O)N[C@H](C(=O)N1CCC[C@H]1C(=O)OC)[C@@H](C)CC [CA-074 Me]
MDA-MB-231 cells; 1 nM, MDA-MB-231 invasion, 5% FBS, 18 hours
  Inhibition rates (%): 19.73 ± 2.31 %
MDA-MB-231 cells; 5 nM, MDA-MB-231 invasion, 5% FBS, 18 hours
  Inhibition rates (%): 34.26 ± 2.30 %
MDA-MB-231 cells; 25 nM, MDA-MB-231 invasion, 5% FBS, 18 hours
  Inhibition rates (%): 44.45 ± 1.43 %
MDA-MB-231 cells
  invasion of MDA-MB-231 cells (in words): decreased invasion of the cells

## Cc1nc(NC(=O)CC(C)C)c(C)c(C)c1O [Compound 8e, N-(5-hydroxy-3,4,6-trimethylpyridine-2-yl)-3-methylbutanamide]
HT-29 cells / U937 cells
  inhibition at 1 µM: 64.2%
[1]
  inhibition in vivo at 0.01 nmol/CAM: 75.6 ± 8.9%

## Cc1nc(NC(=O)C2CCCCC2)c(C)c(C)c1O [Compound 8h, N-(5-hydroxy-3,4,6-trimethylpyridine-2-yl)cyclohexane carboxamide]
HT-29 cells / U937 cells
  inhibition at 1 µM: 64.5%
[1]
  inhibition in vivo at 0.01 nmol/CAM: 76.3 ± 7.2%

## Cc1nc(NC(=O)Cc2ccccc2)c(C)c(C)c1O [Compound 8i, N-(5-hydroxy-3,4,6-trimethylpyridine-2-yl)-2-penylacetamide]
HT-29 cells / U937 cells
  Inhibitory rates (%): 56.6* %
[1]
  Inhibitory rates (%): 69.6 ± 11.0 %

## Cc1nc(NC(=O)c2ccccc2)c(C)c(C)c1O [Compound 8k, N-(5-hydroxy-3,4,6-trimethylpyridine-2-yl)benzamide]
HT-29 cells / U937 cells
  inhibition at 1 µM: 18.5%
[1]
  inhibition in vivo at 0.01 nmol/CAM: 77.3 ± 13.1%

## COc1ccc(C(=O)Nc2nc(C)c(O)c(C)c2C)cc1 [Compound 8m, N-(5-hydroxy-3,4,6-trimethylpyridine-2-yl)-4-methoxybenzamide]
HT-29 cells / U937 cells
  inhibition at 1 µM: 13.9%
[1]
  inhibition in vivo at 0.01 nmol/CAM: 69.7 ± 4.5%

## Cc1nc(NC(=O)c2ccc3c(c2)OCO3)c(C)c(C)c1O [Compound 8o, N-(5-hydroxy-3,4,6-trimethylpyridine-2-yl)benzo[d][1,3]dioxol-5-carboxamide]
HT-29 cells / U937 cells
  inhibition at 1 µM: 40.2%
[1]
  inhibition in vivo at 0.01 nmol/CAM: 64.8 ± 17.4%

## Cc1nc(NC(=O)c2cccc(O)c2)c(C)c(C)c1O [Compound 8v, 3-hydroxy-N-(5-hydroxy-3,4,6-trimethylpyridine-2-yl)benzamide]
HT-29 cells / U937 cells
  inhibition at 1 µM: 54.1%

## Cc1nc(NC(=O)CC(C)CC(C)(C)C)c(C)c(C)c1O (centres unmarked) [Compound 8w, N-(5-hydroxy-3,4,6-trimethylpyridine-2-yl)-3,5,5-trimethylhexanamide]
HT-29 cells / U937 cells
  inhibition at 1 µM: 54.5%

## Cc1nc(NC(=O)Cc2ccc(Cl)cc2)c(C)c(C)c1O [Compound 8x, 2-(4-chlorophenyl)-N-(5-hydroxy-3,4,6-trimethylpyridine-2-yl)acetamide]
HT-29 cells / U937 cells
  inhibition at 1 µM: 41.5%

## Cc1nc(NC(=O)C(Cl)Cl)c(C)c(C)c1O [Compound 8y, 2,2-dichloro-N-(5-hydroxy-3,4,6-trimethylpyridine-2-yl)acetamide]
HT-29 cells / U937 cells
  inhibition at 1 µM: 60.6%

## Cc1nc(NC(=O)C=Cc2ccccc2)c(C)c(C)c1O [Compound 8z, N-(5-hydroxy-3,4,6-trimethylpyridine-2-yl)cinnamide]
HT-29 cells / U937 cells
  Inhibitory rates (%): 25.2%

## CC(C)(F)C[C@H](N[C@@H](c1ccc(-c2ccc(S(C)(=O)=O)cc2)cc1)C(F)(F)F)C(=O)NC1(C#N)CC1 [Odanacatib]
MDA-MB-231 cells; Homo sapiens, 0.04 μM, MDA-MB-231 invasion, 5% FBS, 18 hours, read-out: Inhibition rates (%)
  inhibition at 0.04 µM: 14.9 ± 4.14%
MDA-MB-231 cells; Homo sapiens, 0.2 μM, MDA-MB-231 invasion, 5% FBS, 18 hours, read-out: Inhibition rates (%)
  inhibition at 0.2 µM: 19.9 ± 3.77%
MDA-MB-231 cells; Homo sapiens, 1 μM, MDA-MB-231 invasion, 5% FBS, 18 hours, read-out: Inhibition rates (%)
  inhibition at 1 µM: 22.3 ± 3.7%

## CC(C)CC(=O)N[C@H](C(=O)N[C@H](C(=O)N[C@@H](CC(C)C)[C@@H](O)CC(=O)N[C@@H](C)C(=O)N[C@@H](CC(C)C)[C@@H](O)CC(=O)O)C(C)C)C(C)C [Pepstatin A] (Isovaleryl-VV[Sta]A[Sta]-OH)
MDA-MB-231 cells; [2]
  Inhibition rates (%): 3.42 ± 0.42%
MDA-MB-231 cells; 5 μM, MDA-MB-231 invasion, 5% FBS, 18 hours
  Inhibition rates (%): 4.04 ± 0.33%
MDA-MB-231 cells; 25 μM, MDA-MB-231 invasion, 5% FBS, 18 hours
  Inhibition rates (%): 5.54 ± 0.77%

## CN(C)c1ccc(/C=C2\C(=O)Nc3ccccc32)cc1 [SU4312, reference compound]
A549 lung cancer cells; 0.01 pmol/CAM
  Inhibition rates of angiogenesis (%): 20.8 ± 1.4 %
  Inhibition rates of tumor growth (%): 16.2 ± 20.4%
A549 lung cancer cells; 0.1 pmol/CAM
  Inhibition rates of angiogenesis (%): 25.1 ± 2.8 %
  Inhibition rates of tumor growth (%): 23.4 ± 9.3%
A549 lung cancer cells; 1.0 pmol/CAM
  Inhibition rates of angiogenesis (%): 36.2 ± 1.9 %
  Inhibition rates of tumor growth (%): 26.8 ± 4.9%
[1]
  Inhibitory rates (%): 74.6 ± 8.5 %

## O=C(NC(Cc1ccccc1)C(=O)NC(Cc1ccccc1)C(=O)CF)OCc1ccccc1 (stereo not drawn) [Z-FF-FMK] (Cbz-Phe-Phe-CH2F; configuration not given here)
MDA-MB-231 cells; 0.04 μM, MDA-MB-231 invasion, 5% FBS, 18 hours
  Inhibition rates (%): 3.42 ± 2.08%
MDA-MB-231 cells; 0.2 μM, MDA-MB-231 invasion, 5% FBS, 18 hours
  Inhibition rates (%): 6.97 ± 2.35%
MDA-MB-231 cells; [2]
  Inhibition rates (%): 10.16 ± 2.16 %

## CC(C)C[C@H](NC(=O)[C@H](Cc1ccccc1)NC(=O)OCc1ccccc1)C(=O)C=O [Z-FL-COCHO]
MDA-MB-231 cells; 0.4 nM, MDA-MB-231 invasion, 5% FBS, 18 hours
  Inhibition rates (%): 34.36 ± 3.00 %
MDA-MB-231 cells; 2 nM, MDA-MB-231 invasion, 5% FBS, 18 hours
  Inhibition rates (%): 44.67 ± 2.61 %
MDA-MB-231 cells; 10 nM, MDA-MB-231 invasion, 5% FBS, 18 hours
  Inhibition rates (%): 50.12 ± 2.76 %
MDA-MB-231 cells
  invasion of MDA-MB-231 cells (in words): decreased invasion of the cells
